{"source": "patent US8815535B2", "about": "“Disk diffusion assay for oritavancin” (The Medicines Company, priority 2011, dated 2014)", "test_system": "MSSA ATCC 25923", "assay": "Disk diffusion assay (zone of inhibition)", "format": "cell-based, Staphylococcus aureus", "conditions": "for Average zone diameter: disks from 18 mg/ml oritavancin in 5% P80, 3-hour prediffusion; for zone of inhibition at 9000 µg/mL: read-out: Inhibition zone diameter, ATCC 25923; for zone of inhibition at 45 µg/disc: 45 μg oritavancin in 0.002% P80; for zone of inhibition at 90 µg/disc: 90 μg oritavancin in 0.002% P80; for zone of inhibition at 180 µg/disc: 180 μg oritavancin in 0.002% P80; for zone of inhibition at 12.5 µg/disc: 12.5 μg in 4% P80/Span 80 (1:1)", "source_text": "The study was designed to identify conditions that improve oritavancin diffusion in agar and consequently yield a zone diameter ≧15 mm for the CLSI quality control strain MSSA ATCC 25923. Excipients that increased the disk diffusion of oritavancin in agar relative to disks containing only oritavancin were identified and selected for further study. […] A prediffusion step at room temperature was introduced to maximize oritavancin diffusion prior to initiation of bacterial growth. In this step, the antimicrobial disks were placed on agar plates seeded with a bacterial isolate and incubated at room temperature for 3 hours. Plates were then incubated overnight at 37° C. Zone diameters around the disks in which bacterial growth was inhibited were measured with a ruler and reported in millimeters.\nEthanol-sterilized Whatman paper disks (6 mm diameter) were allowed to dry then impregnated with 20 microliters of oritavancin solution containing total amounts ranging from 90 to 360 micrograms. Disks were allowed to dry at room temperature for various times prior to use.\nBacterial suspensions were prepared and adjusted to an optical density of 0.1 at 600 nm. […] The plate was swabbed a second time, perpendicular to the orientation of the first swab. To assess the impact of prediffusion on diameter of inhibition zones, two disks were immediately placed on one half of the plate and the plate was incubated for 3 hours at room temperature. After 3 hours, two additional disks were placed on the other half of the plate then the plate was incubated overnight at 37° C. Zone diameters were measured with a ruler and reported in millimeters. […]\nOritavancin powder was dissolved in freshly-prepared solutions of the indicated excipients at concentrations of 0.625, 1.25, 2.5, 5, and 10 mg/ml (adjusted for potency based on lot 875561L00 purity of 83.1%) by vortexing for a minimum of 5 minutes. Oritavancin solutions in the various excipients, while not visually clear, were free from any apparent particulates as assessed visually. Sterile Oxoid blank disks were impregnated with 20 μl of these oritavancin solutions, resulting in oritavancin disk loads ranging from 12.5 to 200 μg. Unless indicated otherwise, disks were allowed to dry overnight at room temperature prior to use.\n[…] Swabbing was continued at a right angle and then at an oblique angle to the first and second swabs. Disks were placed upon the seeded plates with sterile forceps. Plates were then incubated overnight at 37° C. and inhibition zone diameters were measured with a ruler and reported in millimeters.", "key": {"[1]": {"conditions": "Staphylococcus aureus, read-out: Average zone diameter, MSSA ATCC 25923, CAMHA containing 1% P80, no prediffusion"}, "[2]": {"conditions": "Staphylococcus aureus, read-out: Average zone diameter, MSSA ATCC 25923, CAMHA containing 1% P80, prediffusion"}}, "note": "Where “and” joins values, the source holds several entries; their conditions need not be identical. Equal entries are not always repeated. Where two headings read alike, the source gives them in different places."}
{"smiles": "CN[C@H](CC(C)C)C(=O)N[C@H]1C(=O)N[C@@H](CC(N)=O)C(=O)N[C@H]2C(=O)N[C@H]3C(=O)N[C@H](C(=O)N[C@H](C(=O)O)c4cc(O)cc(O)c4-c4cc3ccc4O)[C@H](O[C@H]3C[C@](C)(N)[C@@H](O)[C@H](C)O3)c3ccc(c(Cl)c3)Oc3cc2cc(c3O[C@@H]2O[C@H](CO)[C@@H](O)[C@H](O)[C@H]2O[C@H]2C[C@](C)(NCc3ccc(-c4ccc(Cl)cc4)cc3)[C@@H](O)[C@H](C)O2)Oc2ccc(cc2Cl)[C@H]1O", "note": "[oritavancin, N-(4-(4-chlorophenyl)benzyl)A82846B]", "values": [{"measurement": "Inhibition zone diameter", "setting": "ATCC 25923, 25 μg (20 μl of 1.25 mg/ml) in 4% P80/Span 80 (1:1), calcium alginate swab, dried overnight", "result": "22 mm and 20 mm"}, {"measurement": "Inhibition zone diameter", "setting": "ATCC 25923, 20 μl of 9 mg/ml oritavancin in 2.5% P80, prediffusion at 4° C. 3 h, duplicate determinations", "result": 19, "unit": "mm"}, {"measurement": "Inhibition zone diameter", "setting": "ATCC 25923, 20 μl of 9 mg/ml oritavancin in 2.5% P80, prediffusion at 4° C. 6 h, duplicate determinations", "result": 22, "unit": "mm"}, {"measurement": "Inhibition zone diameter", "setting": "ATCC 25923, 20 μl of 9 mg/ml oritavancin in 2.5% P80, prediffusion at room temperature 3 h, duplicate determinations", "result": 17, "unit": "mm"}, {"measurement": "Inhibition zone diameter", "setting": "ATCC 25923, 20 μl of 9 mg/ml oritavancin in 2.5% P80, prediffusion at room temperature 6 h, duplicate determinations", "result": 18.5, "unit": "mm"}, {"measurement": "Inhibition zone diameter", "setting": "ATCC 25923, Oxoid disks, 20 μl of 18 mg/ml oritavancin in 5% P80, stored 30 days at room temperature, prediffusion 6 hours at 4° C.", "result": 17.5, "unit": "mm"}, {"measurement": "Average zone diameter", "setting": "ATCC 25923, stored 1 day at room temperature", "result": 15.0, "unit": "mm"}, {"measurement": "Average zone diameter", "setting": "ATCC 25923, stored 4 days at room temperature", "result": 15.8, "unit": "mm"}, {"measurement": "Average zone diameter", "setting": "ATCC 25923, stored 6 days at room temperature", "result": 16.3, "unit": "mm"}, {"measurement": "Average zone diameter", "setting": "ATCC 25923, stored 8 days at room temperature", "result": 17.0, "unit": "mm"}, {"measurement": "Average zone diameter", "setting": "ATCC 25923, used same day", "result": 14.0, "unit": "mm"}, {"measurement": "Increase of the area of the zone of clearance by prediffusion", "setting": "MSSA ATCC 25923, 360 μg oritavancin in 0.002% P80", "result": "approximately 24%"}, {"measurement": "Zone diameters", "setting": "MSSA ATCC 25923, CAMHA containing 1% P80, disks with various concentrations of oritavancin in 0.002% P80, even with 3 h prediffusion", "result": "< 15", "unit": "mm"}, {"measurement": "Inhibition zone diameter", "setting": "MSSA ATCC 25923, Oxoid disk, 180 μg, 5% P80, stored 7 days, prediffusion 3 h at 4° C., duplicates", "result": 12.5, "unit": "mm"}, {"measurement": "Inhibition zone diameter", "setting": "MSSA ATCC 25923, Oxoid disk, 270 μg, 5% P80, stored 7 days, prediffusion 3 h at 4° C., duplicates", "result": 13.5, "unit": "mm"}, {"measurement": "Inhibition zone diameter", "setting": "MSSA ATCC 25923, Whatman #5 disk, 180 μg, 2.5% P80, stored 7 days, prediffusion 3 h at 4° C., duplicates", "result": 16, "unit": "mm"}, {"measurement": "Inhibition zone diameter", "setting": "MSSA ATCC 25923, Whatman #5 disk, 360 μg, 5% P80, stored 7 days, prediffusion 3 h at 4° C., duplicates", "result": 16.5, "unit": "mm"}, {"measurement": "Zone diameter", "setting": "MSSA quality control strain ATCC 25923, different combinations of the alterations to the traditional assay", "result": "up to 24 mm"}, {"measurement": "zone of inhibition at 360 µg/disc", "setting": "Staphylococcus aureus, 3 h, read-out: Average zone diameter, ATCC 25923, 360 μg oritavancin, excipient 10% HPCD, disks made same day, 3 h prediffusion, average of 2 disks", "result": 17.5, "unit": "mm"}, {"measurement": "zone of inhibition at 9000 µg/mL", "setting": "Staphylococcus aureus, 3 h, 20 μl of 9 mg/ml oritavancin in 2.5% P80, prediffusion at 4° C. 3 h, duplicate determinations", "result": 18, "unit": "mm"}, {"measurement": "zone of inhibition at 9000 µg/mL", "setting": "Staphylococcus aureus, 3 h, 20 μl of 9 mg/ml oritavancin in 2.5% P80, prediffusion at room temperature 3 h, duplicate determinations", "result": 16.5, "unit": "mm"}, {"measurement": "zone of inhibition at 50 µg/disc", "setting": "Staphylococcus aureus, 3 h, read-out: Inhibition zone diameter, MSSA ATCC 25923, 50 μg oritavancin, 0.5% P80/Span 80 (35:65) in water, dried approx. 3 hours, estimate of diameter", "result": 10, "unit": "mm"}, {"measurement": "zone of inhibition at 50 µg/disc", "setting": "Staphylococcus aureus, 3 h, read-out: Inhibition zone diameter, MSSA ATCC 25923, 50 μg oritavancin, 1% P80/Span 80 (35:65) in water, dried approx. 3 hours, estimate of diameter", "result": 15, "unit": "mm"}, {"measurement": "zone of inhibition at 50 µg/disc", "setting": "Staphylococcus aureus, 3 h, read-out: Inhibition zone diameter, MSSA ATCC 25923, 50 μg oritavancin, 2% P80/Span 80 (35:65) in water, dried approx. 3 hours, estimate of diameter", "result": 20, "unit": "mm"}, {"measurement": "zone of inhibition at 50 µg/disc", "setting": "Staphylococcus aureus, 3 h, read-out: Inhibition zone diameter, MSSA ATCC 25923, 50 μg oritavancin, 4% P80/Span 80 (35:65) in water, dried approx. 3 hours, estimate of diameter", "result": 28, "unit": "mm"}, {"measurement": "zone of inhibition at 9000 µg/mL", "setting": "Staphylococcus aureus, 6 h, 20 μl of 9 mg/ml oritavancin in 2.5% P80, prediffusion at 4° C. 6 h, duplicate determinations", "result": 21, "unit": "mm"}, {"measurement": "zone of inhibition at 9000 µg/mL", "setting": "Staphylococcus aureus, 6 h, 20 μl of 9 mg/ml oritavancin in 2.5% P80, prediffusion at room temperature 6 h, duplicate determinations", "result": 18, "unit": "mm"}, {"measurement": "zone of inhibition at 360 µg/disc", "setting": "Staphylococcus aureus, 192 h, read-out: Zone diameter (mm ± SD), ATCC 25923, 360 μg in 5% P80, Experiment 2, disks stored 8 days, no prediffusion", "result": 14.5, "unit": "mm"}, {"measurement": "zone of inhibition at 360 µg/disc", "setting": "Staphylococcus aureus, 216 h, read-out: Average zone diameter, MSSA ATCC 25923, 360 μg oritavancin in 0.002% P80, without prediffusion, two disks (FIG. 1A), disks stored 9 days", "result": 10.5, "unit": "mm"}, {"measurement": "zone of inhibition at 360 µg/disc", "setting": "Staphylococcus aureus, 216 h, read-out: Average zone diameter, MSSA ATCC 25923, 360 μg oritavancin in 5% P80, with prediffusion (FIG. 1D), disks stored 9 days", "result": 17, "unit": "mm"}, {"measurement": "zone of inhibition at 360 µg/disc", "setting": "Staphylococcus aureus, 216 h, read-out: Average zone diameter, MSSA ATCC 25923, 360 μg oritavancin in 5% P80, without prediffusion (FIG. 1B), disks stored 9 days", "result": 14.8, "unit": "mm"}, {"measurement": "zone of inhibition at 360 µg/disc", "setting": "Staphylococcus aureus, 336 h, read-out: Zone diameter (mm ± SD), ATCC 25923, 360 μg in 5% P80, Experiment 1, disks stored 14 days, no prediffusion", "result": "15.3 ± 0.4", "unit": "mm"}, {"measurement": "zone of inhibition at 360 µg/disc", "setting": "Staphylococcus aureus, read-out: Average zone diameter, ATCC 25923, 360 μg oritavancin, excipient 5% P80, disks stored 5 days at room temperature, 3 h prediffusion, average of 2 disks", "result": 19, "unit": "mm"}, {"measurement": "zone of inhibition at 45 µg/disc", "setting": "[1]", "result": 12, "unit": "mm"}, {"measurement": "zone of inhibition at 45 µg/disc", "setting": "[2]", "result": 12.3, "unit": "mm"}, {"measurement": "zone of inhibition at 90 µg/disc", "setting": "[1]", "result": 11.8, "unit": "mm"}, {"measurement": "zone of inhibition at 90 µg/disc", "setting": "[2]", "result": 12.8, "unit": "mm"}, {"measurement": "zone of inhibition at 180 µg/disc", "setting": "[1]", "result": 12.3, "unit": "mm"}, {"measurement": "zone of inhibition at 180 µg/disc", "setting": "[2]", "result": 13, "unit": "mm"}, {"measurement": "zone of inhibition at 360 µg/disc", "setting": "Staphylococcus aureus, read-out: Average zone diameter, MSSA ATCC 25923, 360 μg oritavancin in 0.002% P80, CAMHA containing 1% P80, no prediffusion", "result": 12.8, "unit": "mm"}, {"measurement": "zone of inhibition at 360 µg/disc", "setting": "Staphylococcus aureus, read-out: Average zone diameter, MSSA ATCC 25923, 360 μg oritavancin in 0.002% P80, CAMHA containing 1% P80, prediffusion", "result": 12.5, "unit": "mm"}, {"measurement": "zone of inhibition at 12.5 µg/disc", "setting": "Staphylococcus aureus, read-out: Inhibition zone diameter, 25923, calcium alginate swab, dried overnight", "result": 20, "unit": "mm"}, {"measurement": "zone of inhibition at 12.5 µg/disc", "setting": "Staphylococcus aureus, read-out: Inhibition zone diameter, 25923, cotton swab, dried overnight, estimate of diameter", "result": 27, "unit": "mm"}, {"measurement": "zone of inhibition at 25 µg/disc", "setting": "Staphylococcus aureus, read-out: Inhibition zone diameter, 25923, 25 μg in 4% P80/Span 80 (1:1), cotton swab (Table 14), dried overnight, estimate of diameter", "result": 30, "unit": "mm"}, {"measurement": "zone of inhibition at 50 µg/disc", "setting": "Staphylococcus aureus, read-out: Inhibition zone diameter, 25923, 50 μg in 4% P80/Span 80 (1:1), calcium alginate swab, dried overnight", "result": 19, "unit": "mm"}]}
